The target in the first test is T1, full length active recombinant SYK enzyme (Homo sapiens, UniProt P43405).
T1 construct: full length active recombinant SYK enzyme (Millipore, Calif.); purchased Millipore
Put plainly: Inhibition of Syk tyrosine phosphorylation activity (LANCE TR-FRET). The conditions noted are these: Table 3; 1 nM SYK, 100 μM ATP; read-out: Syk IC50 code. Format: biochemical. The method, then: The in vitro and in vivo human syk activities of the inventive compounds can be determined by various procedures known in the art, such as a test for their ability to inhibit the activity of human plasma syk. […] Inhibition of Syk Tyrosine Phosphorylation Activity Potency of candidate molecules for inhibiting syk tyrosine phosphorylation activity is assessed by measuring the ability of a test compound to inhibit syk-mediated tyrosine phosphorylation of a syk-specific substrate. SYK tyrosine phosphorylation activity is measured using the LANCETM Technology developed by Perkin Elmer Life and Analytical Sciences (Boston, Mass.). LANCETM refers to homogeneous time resolved fluorometry applications using techniques such as time-resolved fluorescence resonance energy transfer assay (TR-FRET) (see generally for procedures in Perkin Elmer Application Note-How to Optimize a Tyrosine Kinase Assay Using Time Resolved Fluorescence-Based LANCE Detection, wwww.perkinelmer.com/lifesciences). The assay principle involves detection of a phosphorylated substrate using energy transfer from a phosphospecific europium-labeled antibody to streptavidin-allophycocyanin as an acceptor. To test the ability of candidate molecules to inhibit SYK tyrosine phosphorylation activity, molecules are reconstituted in 30% DMSO and serially diluted 1:3 with the final dilution containing DMSO in the absence of the candidate molecule. The final DMSO concentration in the assay is 3%. Kinase assays are performed as a two part reaction. The first reaction is a kinase reaction and which comprises of a candidate molecule, full length active recombinant SYK enzyme (Millipore, Calif.) and biotin-labeled SYK-specific substrate biotin-[…]-OH. The second reaction involves termination of the kinase reaction and the simultaneous addition of the detection reagents-europium-labeled anti-phosphotyrosine reagent (Eu-W1024-PY100, Perkin Elmer, Boston, Mass.) and Streptavidin-Allophycocyanin detection reagent (SA-APC, Prozyme, Calif.). The kinase reaction is performed in a black U-bottom 96-well microtitre plate. […] The reaction is allowed to proceed for 1 hour at room temperature. […] The detection reagents are added to the reaction mixture at the following dilutions-1:500 for Eu-W1024-PY100 and 1:250 for SA-APC. The kinase reaction is terminated by the addition of 50 μL quench buffer containing the detection reagents. The detection is allowed to proceed for 1 hr at room temperature. Detection of the phosphorlated substrate in the absence and presence of inhibitors is measured in the TR-FRET instrument, Analyst HT ([…], Sunnyvale, Calif.) and the condition for measurements are set up using CriterionHost Release 2.0 ([…], Sunnyvale, Calif.). […] IC50s were derived by non-linear regression analysis.
`CN(C(=O)CO)c1ccc(Nc2nc(NC3CCC3)c3cc[nH]c3n2)cc1` [Example 74, N-(4-(4-(cyclobutylamino)-7H-pyrrolo[2,3-d]pyrimidin-2-ylamino)phenyl)-2-hydroxy-N-methylacetamide]: the 50% inhibitory concentration (IC50) fell in the range of 10 to 100 nM. Consider `CC(=O)N1CCN(c2ccc(Nc3nc(NCC4CCNCC4)c4c(C#N)c[nH]c4n3)cc2)CC1` [Example 45, 2-(4-(4-acetylpiperazin-1-yl)phenylamino)-4-(piperidin-4-ylmethylamino)-7H-pyrrolo[2,3-d]pyrimidine-5-carbonitrile], for which the concentration for half-maximal inhibition (IC50) fell in the range of 100 to 1000 nM. Turning to `CN(C(=O)C1CC1)c1ccc(Nc2nc(NC3CCC3)c3cc[nH]c3n2)cc1` [Example 80, N-(4-(4-(cyclobutylamino)-7H-pyrrolo[2,3-d]pyrimidin-2-ylamino)phenyl)-N-methylcyclopropanecarboxamide], the IC50 was in the range of 100 to 1000 nM. Regarding `CC(=O)N1CCN(c2ccc(Nc3ncc(F)c(N[C@H]4CC[C@@H](N)CC4)n3)cc2)CC1` [Example 142, 1-(4-(4-(4-((1s,4s)-4-aminocyclohexylamino)-5-fluoropyrimidin-2-ylamino)phenyl)piperazin-1-yl)ethanone], the IC50 is 100 to 1000 nM. Regarding `CCOC(=O)CC(N)C1CCN(c2nc(Nc3ccc4c(c3)CCC(=O)N4)ncc2F)CC1` (stereo not drawn) [Example 134, Ethyl 3-amino-3-(1-(5-fluoro-2-(2-oxo-1,2,3,4-tetrahydroquinolin-6-ylamino)pyrimidin-4-yl)piperidin-4-yl)propanoate], the IC50 was 100 to 1000 nM.

With `N#CCC(=O)N1CCC(Nc2nc(Nc3ccc(C(N)=O)cc3)nc3[nH]ccc23)CC1` [Example 109, 4-(4-(1-(2-cyanoacetyl)piperidin-4-ylamino)-7H-pyrrolo[2,3-d]pyrimidin-2-ylamino)benzamide], the IC50 is over 1000 nM. Regarding `CC(=O)N1CCN(c2ccc(Nc3ncc(F)c(N4CCN(C(N)=O)CC4)n3)cc2)CC1` [Example 125, 4-(2-(4-(4-acetylpiperazin-1-yl)phenylamino)-5-fluoropyrimidin-4-yl)piperazine-1-carboxamide], the 50% inhibitory concentration (IC50) was over 1000 nM. As for `CN1C(=O)CCc2cc(Nc3nc(Nc4ccc(F)cc4)c4c(-c5ccncc5)c[nH]c4n3)ccc21` [Example 112, 6-(4-(4-fluorophenylamino)-5-(pyridin-4-yl)-7H-pyrrolo[2,3-d]pyrimidin-2-ylamino)-1-methyl-3,4-dihydroquinolin-2(1H)-one], the IC50 was in the range of 100 to 1000 nM. Regarding `O=C1CNc2nc(Nc3ccc4cn[nH]c4c3)nc(NC3CCC3)c21` [Example 51, 2-(1H-indazol-6-ylamino)-4-(cyclobutylamino)-6,7-dihydropyrrolo[2,3-d]pyrimidin-5-one], the half-maximal inhibitory concentration (IC50) lay within 100 to 1000 nM.

Take `NC(=O)c1ccc(Nc2ncc(F)c(N[C@H]3CC[C@@H](N)CC3)n2)cc1` [Example 141, 4-(4-((1s,4s)-4-aminocyclohexylamino)-5-fluoropyrimidin-2-ylamino)benzamide]: the IC50 lay in the range of 100 to 1000 nM. On the same count and under the same terms, then `NCC1CCN(c2nc(Nc3ccc4c(c3)CCC(=O)N4)ncc2Br)CC1` [Example 132, 6-(4-(4-(aminomethyl)piperidin-1-yl)-5-bromopyrimidin-2-ylamino)-3,4-dihydroquinolin-2(1H)-one], with 10 to 100 nM. `O=C(O)CN1C(=O)CCc2cc(Nc3nc(NC4CCC4)c4cc[nH]c4n3)ccc21` [Example 70, 2-(6-(4-(cyclobutyamino)-7H-pyrrolo[2,3-d]pyrimidine-2-ylamino)-2-oxo-3,4-dihydroquinolin-1(2H)-yl)acetic acid]: the half-maximal inhibitory concentration (IC50) was in the range of 10 to 100 nM. For `CC(=O)N1CCN(c2ccc(Nc3ncc(F)c(N4CCC(NC(N)=O)CC4)n3)cc2)CC1` [Example 129, 1-(1-(2-(4-(4-acetylpiperazin-1-yl)phenylamino)-5-fluoropyrimidin-4-yl)piperidin-4-yl)urea], the IC50 was over 1000 nM. As to `COc1ccc(Nc2nc(Nc3ccc4c(c3)CCC(=O)N4)nc3[nH]cc(C#N)c23)cc1` [Example 111, 4-(4-methoxyphenylamino)-2-(2-oxo-1,2,3,4-tetrahydroquinolin-6-ylamino)-7H-pyrrolo[2,3-d]pyrimidine-5-carbonitrile], the IC50 fell in the range of 100 to 1000 nM. Turning to `c1cc(-c2c[nH]c3nc(Nc4ccc5cn[nH]c5c4)nc(NC4CC4)c23)ccn1` [Example 43, N4-cyclopropyl-N2-(1H-indazol-6-yl)-5-(pyridin-4-yl)-7H-pyrrolo[2,3-d]pyrimidine-2,4-diamine], the IC50 lay in the range of 100 to 1000 nM. `Brc1c[nH]c2nc(Nc3ccc4cn[nH]c4c3)nc(NC3CCC3)c12` [Example 49, 5-bromo-N4-cyclobutyl-N2-(1H-indazol-6-yl)-7H-pyrrolo[2,3-d]pyrimidine-2,4-diamine]: the IC50 fell in the range of 1 to 10 nM. The same measure, in the same setting: then `NC(=O)NCC1CCN(c2nc(Nc3ccc4c(c3)CCC(=O)N4)ncc2F)CC1` [Example 37, 1-((1-(5-fluoro-2-(2-oxo-1,2,3,4-tetrahydroquinolin-6-ylamino)pyrimidin-4-yl)piperidin-4-yl)methyl)urea], with 100 to 1000 nM; and `NC(=O)CC1CCN(c2nc(Nc3ccc4c(c3)CCC(=O)N4)nc3[nH]ccc23)CC1` [Example 121, 2-(1-(2-(2-oxo-1,2,3,4-tetrahydroquinolin-6-ylamino)-7H-pyrrolo[2,3-d]pyrimidin-4-yl)piperidin-4-yl)acetamide], with 100 to 1000 nM.

Regarding `CN(C(=O)C1CC1)c1ccc(Nc2nc(NC3CC3)c3cc[nH]c3n2)cc1` [Example 81, N-(4-(4-(cyclopropylamino)-7H-pyrrolo[2,3-d]pyrimidin-2-ylamino)phenyl)-N-methylcyclopropanecarboxamide], the IC50 fell in the range of 100 to 1000 nM. On the same count and under the same terms, under `CN(C)CCCNC(=O)c1ccc(Nc2nc(NC3CCC3)c3cc[nH]c3n2)cc1` [Example 85] stands 100 to 1000 nM; under `Clc1c[nH]c2nc(Nc3ccc4cn[nH]c4c3)nc(NC3CCC3)c12` [Example 50, 5-chloro-N4-cyclobutyl-N2-(1H-indazol-6-yl)-7H-pyrrolo[2,3-d]pyrimidine-2,4-diamine], 1 to 10 nM.

Still in this test, the particulars now being: Table 4; 1 nM SYK, 100 μM ATP; read-out: syk IC50.
In the case of `NC[C@@H]1CCCN1c1nc(Nc2ccc3cn[nH]c3c2)nc2[nH]ccc12` [(S)-4-(2-(aminomethyl)pyrrolidin-1-yl)-N-(1H-indazol-6-yl)-7H-pyrrolo[2,3-d]pyrimidin-2-amine], the IC50 is over 1000 nM. On the same count and under the same terms, under `N[C@H]1CCCN(c2nc(Nc3ccc4cn[nH]c4c3)nc3[nH]ccc23)C1` [(S)-4-(3-aminopiperidin-1-yl)-N-(1H-indazol-6-yl)-7H-pyrrolo[2,3-d]pyrimidin-2-amine] stands 100 to 1000 nM; under `CC(=O)N1CCN(c2ccc(Nc3ncc(C(N)=O)c(N4CCC(CN)CC4)n3)cc2)CC1` [Example 25, 2-(4-(4-acetylpiperazin-1-yl)phenylamino)-4-(4-(aminomethyl)piperidin-1-yl)pyrimidine-5-carboxamide], over 1000 nM. Regarding `CC(=O)N1CCN(c2ccc(Nc3nc(N4CCCC4)c4cc[nH]c4n3)cc2)CC1` [Example 22, 1-(4-(4-(4-(pyrrolidin-1-yl)-7H-pyrrolo[2,3-d]pyrimidin-2-ylamino)phenyl)piperazin-1-yl)ethanone], the half-inhibitory concentration (IC50) was 100 to 1000 nM. For the compound `CC(C)(C)OC(=O)NCC1CCN(c2nc(Nc3ccc(C(N)=O)cc3)ncc2F)CC1` [Example 30, tert-butyl (1-(2-(4-carbamoylphenylamino)-5-fluoropyrimidin-4-yl)piperidin-4-yl)methylcarbamate], the IC50 was over 1000 nM.

As for `COc1cc(Nc2ncc(F)c(N3CCC(CN)CC3)n2)cc(OC)c1OC` [Example 17, 4-(4-(aminomethyl)piperidin-1-yl)-5-fluoro-N-(3,4,5-trimethoxyphenyl)pyrimidin-2-amine], the IC50 lay in the range of 100 to 1000 nM. On to `CC(=O)N1CCN(c2ccc(Nc3nc(N4CCCCC4)c4cc[nH]c4n3)cc2)CC1` [Example 20, 1-(4-(4-(4-(piperidin-1-yl)-7H-pyrrolo[2,3-d]pyrimidin-2-ylamino)phenyl)piperazin-1-yl)ethanone], for which the IC50 was over 1000 nM. Turning to `CC(=O)N1CCN(c2ccc(Nc3ncc(C(N)=O)c(N4CCCN(CCO)CC4)n3)cc2)CC1` [2-(4-(4-acetylpiperazin-1-yl)phenylamino)-4-(4-(2-hydroxyethyl)-1,4-diazepan-1-yl)pyrimidine-5-carboxamide], the IC50 lay in the range of 100 to 1000 nM.

Consider `c1cc2c(N3CCCC3)nc(Nc3ccc(N4CCNCC4)cc3)nc2[nH]1` [Example 21, N-(4-(piperazin-1-yl)phenyl)-4-(pyrrolidin-1-yl)-7H-pyrrolo[2,3-d]pyrimidin-2-amine], for which the concentration for half-maximal inhibition (IC50) was 100 to 1000 nM.

By IC50 is commonly meant the concentration at which inhibition is half-maximal.

Values taken from patent publication US9139581B2 (PORTOLA PHARMACEUTICALS, INC., priority 2008, dated 2015).
